In US11027155B2, “Method for prevention and treatment of diabetic kidney disease” (priority 2019, dated 2021):
“Also recorded” adds a separate entry of the source.

What was measured:
hyaluronan = test: Serum hyaluronan content in 4-MU fed diabetic nephropathy mice; assay type: in vivo; details: 4-MU fed animals, 5% 4-MU sodium salt in diet, after 3 weeks of treatment
Excerpt: The present disclosure describes a new use of HA synthesis inhibitors for the treatment of Diabetic Kidney Disease. To study the effects of HA inhibitors on the development of DKD, our experiments were done by providing the test drug (4-Methylumbelliferone, 4-MU) in the food to one of the best available murine models of diabetic nephropathy, the diabetic and moderately hypertensive endothelial nitric oxide synthase/leptin receptor deficient (eNOS−/−/db/db) mice (Mohan S., et al. Laboratory Investigation. 2008, vol. 88, p. 515-528; Betz B., at al. Nephron Exp Nephrol. 2014, vol. 126, p. 191-195). At 9 weeks old, the double homozygous mutant eNOS/db mice were separated in two similar groups regarding sex, body weight, non-fasting plasma glucose concentrations, and consanguinity. Experimental animals were fed at libitum identical artificial diets formulated by Envigo-Teklad, containing or not 5% of 4-MU sodium salt (Sigma, cat. no. M1508) until 19 weeks of age. Both diets provided 3.5 Kcal/g and contained by weight: 17.7% of protein, 53.7% of carbohydrate, and 7.2% of fat. Diets were kept sealed under vacuum at −20° C. protected from light. Every week, the old food was removed, and animals were provided fresh food pellets. […] We detected in 4-MU fed animals a reduction of serum hyaluronan content of about 30% after 3 weeks of treatment.

[1] = Body weight and appearance monitored weekly in eNOS/db mice; assay type: in vivo
Excerpt: The present disclosure describes a new use of HA synthesis inhibitors for the treatment of Diabetic Kidney Disease. To study the effects of HA inhibitors on the development of DKD, our experiments were done by providing the test drug (4-Methylumbelliferone, 4-MU) in the food to one of the best available murine models of diabetic nephropathy, the diabetic and moderately hypertensive endothelial nitric oxide synthase/leptin receptor deficient (eNOS−/−/db/db) mice (Mohan S., et al. Laboratory Investigation. 2008, vol. 88, p. 515-528; Betz B., at al. Nephron Exp Nephrol. 2014, vol. 126, p. 191-195).
(§1) At 9 weeks old, the double homozygous mutant eNOS/db mice were separated in two similar groups regarding sex, body weight, non-fasting plasma glucose concentrations, and consanguinity. Experimental animals were fed at libitum identical artificial diets formulated by Envigo-Teklad, containing or not 5% of 4-MU sodium salt (Sigma, cat. no. M1508) until 19 weeks of age. Both diets provided 3.5 Kcal/g and contained by weight: 17.7% of protein, 53.7% of carbohydrate, and 7.2% of fat. Diets were kept sealed under vacuum at −20° C. protected from light. Every week, the old food was removed, and animals were provided fresh food pellets.
The weight and appearance of the animals was monitored weekly.

plasma glucose = test: Non-fasting plasma glucose (commercial kit EIAGLUC); assay type: in vivo, mice; details: 4-MU-treated vs control, end of the experiments (18-week-old)
Excerpt: as §1, with “-20°” for “−20°”, “pellets. Plasma glucose levels were measured using a commercial kit ([…], Invitrogen). […] This fact remarks an important difference between our invention and the use of 4-MU to treat autoimmune diabetes.” for “pellets.”

C-Reactive Protein = C-Reactive Protein immunoassay in serum; assay type: in vivo, mice; details: 4 weeks after being fed with the special diets
Excerpt: as §1, with “pellets. […] C—RP is considering the gold standard marker for inflammation and the lack of differences in this protein between our experimental mice points out that 4-MU is not affecting the development of DKD by crucially changing the inflammatory responses in our diabetic animals but for other mechanism of action.” for “pellets.”

eNOS−/−/db/db mice [2] = test: Glomerular Filtration Rate by single bolus FITC-inulin in conscious mice; assay type: in vivo
Excerpt: The present disclosure describes a new use of HA synthesis inhibitors for the treatment of Diabetic Kidney Disease. To study the effects of HA inhibitors on the development of DKD, our experiments were done by providing the test drug (4-Methylumbelliferone, 4-MU) in the food to one of the best available murine models of diabetic nephropathy, the diabetic and moderately hypertensive endothelial nitric oxide synthase/leptin receptor deficient (eNOS−/−/db/db) mice (Mohan S., et al. Laboratory Investigation. 2008, vol. 88, p. 515-528; Betz B., at al. Nephron Exp Nephrol. 2014, vol. 126, p. 191-195). At 9 weeks old, the double homozygous mutant eNOS/db mice were separated in two similar groups regarding sex, body weight, non-fasting plasma glucose concentrations, and consanguinity. Experimental animals were fed at libitum identical artificial diets formulated by Envigo-Teklad, containing or not 5% of 4-MU sodium salt (Sigma, cat. no. M1508) until 19 weeks of age. Both diets provided 3.5 Kcal/g and contained by weight: 17.7% of protein, 53.7% of carbohydrate, and 7.2% of fat. […] In our experiments, GFR were determined before (week 8) and after 10 week of treatments (week 18) by a single bolus injection of fluorescein isothiocyanate-(FITC) labeled inulin in conscious mice (Rieg T. J Vis Exp. 2013, May 10: e50330, doi: 10.3791/50330). […]

eNOS−/−/db/db mice [3] = test: Comparison of kidney morphology; assay type: in vivo; details: diabetic mice fed 4-MU diet vs control diet
Excerpt: The present disclosure describes a new use of HA synthesis inhibitors for the treatment of Diabetic Kidney Disease. To study the effects of HA inhibitors on the development of DKD, our experiments were done by providing the test drug (4-Methylumbelliferone, 4-MU) in the food to one of the best available murine models of diabetic nephropathy, the diabetic and moderately hypertensive endothelial nitric oxide synthase/leptin receptor deficient (eNOS−/−/db/db) mice (Mohan S., et al. Laboratory Investigation. 2008, vol. 88, p. 515-528; Betz B., at al. Nephron Exp Nephrol. 2014, vol. 126, p. 191-195). At 9 weeks old, the double homozygous mutant eNOS/db mice were separated in two similar groups regarding sex, body weight, non-fasting plasma glucose concentrations, and consanguinity. Experimental animals were fed at libitum identical artificial diets formulated by Envigo-Teklad, containing or not 5% of 4-MU sodium salt (Sigma, cat. no. M1508) until 19 weeks of age. Both diets provided 3.5 Kcal/g and contained by weight: 17.7% of protein, 53.7% of carbohydrate, and 7.2% of fat. Diets were kept sealed under vacuum at −20° C. protected from light. Every week, the old food was removed, and animals were provided fresh food pellets.

eNOS−/−/db/db mice [4] = test: Kidney histopathology (H&E, PAS), semi-quantitative glomerular index; assay type: in vivo
Excerpt: The present disclosure describes a new use of HA synthesis inhibitors for the treatment of Diabetic Kidney Disease. To study the effects of HA inhibitors on the development of DKD, our experiments were done by providing the test drug (4-Methylumbelliferone, 4-MU) in the food to one of the best available murine models of diabetic nephropathy, the diabetic and moderately hypertensive endothelial nitric oxide synthase/leptin receptor deficient (eNOS−/−/db/db) mice (Mohan S., et al. Laboratory Investigation. 2008, vol. 88, p. 515-528; Betz B., at al. Nephron Exp Nephrol. 2014, vol. 126, p. 191-195). At 9 weeks old, the double homozygous mutant eNOS/db mice were separated in two similar groups regarding sex, body weight, non-fasting plasma glucose concentrations, and consanguinity. Experimental animals were fed at libitum identical artificial diets formulated by Envigo-Teklad, containing or not 5% of 4-MU sodium salt (Sigma, cat. no. M1508) until 19 weeks of age. Both diets provided 3.5 Kcal/g and contained by weight: 17.7% of protein, 53.7% of carbohydrate, and 7.2% of fat. Diets were kept sealed under vacuum at −20° C. protected from light. Every week, the old food was removed, and animals were provided fresh food pellets. Finally, for histopathology analysis kidneys were collected from 4-MU-treated and control mice at the end of the experiment. Organs were fixed in 10% NB formalin for 44 hours, embedded in paraffin, and 3 urn sections were stained with Hematoxylin and Eosin (H&E) or Periodic acid—Schiff (PAS), before being examined following Zhao H J et al. (Zhao H. J., et al. J Am Soc Nephrol. 2006, vol. 17, p. 2664-2669). A semi-quantitative index was used to evaluate the degree of glomerular mesangial expansion and sclerosis. 50 glomeruli on a single section (25 from each kidney) were scored from 0 to 4, where 0 represents no lesions and 1, 2, 3, and 4 represent mesangial matrix expansion or sclerosis involving less than or equal to 25, 26-50, 51-75, or >75% of the glomerular tuft area, respectively. End stage sclerotic glomeruli (glomerulosclerosis) were counted, as well as the number of glomeruli that contained nodules, and the percentage of affected glomeruli within the 50 analyzed. Histopathology staining and analyses were done by an independent service and the specialists were blind regarding the nature of the samples.

type 1 diabetes = details: after the onset of autoimmune insulitis, two mice models; cited from earlier work
[5] = cited from earlier work
[6] = tested on: LPS-Induced Lung Inflammation; details: mice; cited from earlier work
[7] = tested on: aortic smooth muscle cell (aSMC); details: in vitro; cited from earlier work
[8] = tested on: renal ischemia-reperfusion injury (IRI); details: cited from earlier work
HA synthesis = details: cited from earlier work
malignant tumor cells = details: in vitro and animal models of liver, breast, prostate, pancreatic, and renal carcinomas; cited from earlier work
diabetic patients = details: cited from earlier work
[9] = 4-MU-treated vs control, end of the experiment

Cc1cc(=O)oc2cc(O)ccc12 [4-MU, 4-Methylumbelliferone]
reduction of serum hyaluronan content (hyaluronan): about 30% | overall health and survival ([1]; DKD animals): impacted their overall health and survival | body weight over time vs control diet ([1]; eNOS/db mice, 4-MU diet from 9 to 19 weeks of age): keep their body weight for a longer period; also recorded: kept their body weight longer | weight loss (final weight divided by maximum reached weight) vs control ([1]; final stages of the disease, end of the experiments): significant difference in weight loss; also recorded: control diet lost significantly more weight than the mice treated with 4-MU | non-fasting plasma glucose levels (plasma glucose): No significant difference; also recorded: did not affect | C-RP values in serum, treated vs untreated (C-Reactive Protein): No significant difference; also recorded: not significant differences | GFR, initial (week 7-8) vs final (week 18) in treated mice (eNOS−/−/db/db mice [2]; after 10 week of treatments): No significant difference; also recorded: kept their GFR values unchanged | progression of DKD (eNOS−/−/db/db mice [2]; from GFR results): significantly delayed the progression of DKD | kidney morphology (eNOS−/−/db/db mice [3]): abnormalities are less pronounced; also recorded: less advanced degree of DKD | signs of nephritis and tubulitis (eNOS−/−/db/db mice [4]; 4-MU-treated mice, unlike control): did not found signs | glomerular injury index (eNOS−/−/db/db mice [4]; [9]): significant lower | nodular glomerulosclerosis (eNOS−/−/db/db mice [4]; [9]): lower | degree of kidney injuries (histopathology summary) (eNOS−/−/db/db mice [4]; FIG. 8): lower degree of kidney injuries | progression to type 1 diabetes (type 1 diabetes): halted progression to type 1 diabetes | metabolism in vivo to 4-MUG and 4-MUS [5]: rapidly metabolized | LPS-Induced Lung Inflammation [6]: can suppress | aSMC apoptosis [7]: induced apoptosis | aSMC proliferation, migration [7]: blocked | hyaluronan content in kidneys ([8]; 4-MU treatment): can reduce | renal ischemia-reperfusion injury after kidney transplants ([8]; inhibition pre and post-operatively): protective | HA synthesis (HA synthesis): selectively inhibited | cytostatic / anti-metastatic effect on malignant tumor cells (malignant tumor cells): useful as cytostatic or in preventing metastasis

Cc1ccc([C@@H]2O[C@H](CO)[C@@H](O)[C@H](O)[C@H]2O)cc1Cc1ccc(-c2ccc(F)cc2)s1 [canagliflozin]
vascular and renal effects (diabetic patients): vascular and renal protective effects
